Structures can show the parent of a compound that is named as a salt. Where two headings read alike, the source gives them in different places.
Columns and labels:
phospholipidosis = conditions: cited from earlier work
[1] = cited from earlier work
[2] = target: T1, recombinant mouse LPLA2 (PLA2G15) (Mus musculus, UniProt Q8VEB4); assay: Transacylase activity of LPLA2 (1-O-acyl-N-acetylsphingosine synthase, cell-free liposome assay); type: biochemical
T1 construct: purchased Proteos Inc. (Kalamazoo, MI)
T1 sequence (Q8VEB4 34-412): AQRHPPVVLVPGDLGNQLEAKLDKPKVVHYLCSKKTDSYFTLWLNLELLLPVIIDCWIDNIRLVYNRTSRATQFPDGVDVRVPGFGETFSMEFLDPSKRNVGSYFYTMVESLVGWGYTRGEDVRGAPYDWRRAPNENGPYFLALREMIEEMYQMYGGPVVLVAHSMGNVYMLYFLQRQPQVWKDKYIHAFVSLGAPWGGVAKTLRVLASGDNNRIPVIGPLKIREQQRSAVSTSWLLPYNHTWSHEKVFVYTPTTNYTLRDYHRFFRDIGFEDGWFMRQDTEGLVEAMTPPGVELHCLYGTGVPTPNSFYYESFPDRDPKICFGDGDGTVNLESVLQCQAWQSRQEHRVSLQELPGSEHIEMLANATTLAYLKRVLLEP

LPLA2 = target: T2, LPLA2 (Mus musculus, UniProt Q8VEB4); assay: LPLA2 thermal stability measurement (SYPRO Orange Tm); type: binding
T2 construct: purchased Proteos Inc. (Kalamazoo, MI)
T2 sequence (Q8VEB4 34-412): T1 sequence (Q8VEB4 34-412)

[3] = phospholipidosis reported in vitro, Refs of Table 1
[4] = ref Pubchem and chEMBL databases
[5] = 1-O-acyl N-acetylsphingosine synthase activity, pH 4.5, DOPC/sulfatide liposomes, read-out: LPLA2 IC50

Row | SMILES | In Vitro PLD (phospholipidosis; [3]) | IC50 [2, 5] | (ΔTm)c-(ΔTm)d, difference in melting temperature of LPLA2 alone or in the presence of drug (LPLA2; N=3 ± SD) | other results
1 | Nc1c2c(nc3ccccc13)CCCC2 [Tacrine, 1,2,3,4-tetrahydroacridin-9-amine] |  |  |  | In Vitro PLD (phospholipidosis): Yes
2 | CN(C)CCN(Cc1cccs1)c1ccccn1 [Methapyrilene, N-[2-(dimethylamino)ethyl]-N-[(thiophen-2-yl)methyl]pyridin-2-amine] | Yes |  |  | pKa (basic) [1, 4]: 8.85
3 | CN1CCC(=C2c3ccccc3CC(=O)c3sccc32)CC1 [Ketotifen] | Yes | 19.7 µM | 0.10 ± 0.0 °C | 
4 | O=C(CCCN1CCC2(CC1)C(=O)NCN2c1ccccc1)c1ccc(F)cc1 [Spiperone, 8-[3-(p-fluor benzoyl)propyl]-1-phenyl-1,3,8-triazaspiro [4.5]decan-4-one] | Yes | 519 µM | 1.86 ± 0.1 °C | 
5 | CC1=C(CC(=O)O)c2cc(F)ccc2/C1=C\c1ccc([S+](C)[O-])cc1 (centres unmarked) [Sulindac, 2-[(1Z)-5-fluoro-1-[(4-methanesulfinylphenyl)methylidene]-2-methyl-1H-inden-3-yl]acetic acid] | Yes | 10.9 µM | -0.10 ± 0.0 °C | 
6 | CCOC(=O)N1CCC(=C2c3ccc(Cl)cc3CCc3cccnc32)CC1 [Loratadine, ethyl 4-{13-chloro-4-azatricyclo[9.4.0.0^3,^8]pentadeca-1(11),3(8),4,6,12,14-hexaen-2-ylidene}piperidine-1-carboxylate] | Yes | 8.94 µM |  | 
7 | CC(C)(C)NCC(O)c1cc(Cl)c(N)c(Cl)c1.Cl (stereo not drawn) [Clenbuterol, 4-amino-3,5-dichloro-α-[[(1,1-dimethylethyl)amino]methyl]-benzenemethanol, monohydrochloride] | Yes |  | 1.20 ± 0.23 °C | LPLA2 inhibition (in words) [2]: millimolar concentrations; IC50 ([2]; LPLA2 IC50): 7300 µM
8 | Clc1ccc(C(c2ccccc2Cl)C(Cl)Cl)cc1 (centres unmarked) [Mitotane, 1-chloro-4-[2,2-dichloro-1-(2-chlorophenyl)ethyl] benzene] | Yes | 132 µM |  | (ΔTm)c-(ΔTm)d, difference in melting temperature of LPLA2 alone or in the presence of drug (LPLA2): 0.47 ± 0.1 °C
9 | CC(C)N=c1cc2n(-c3ccc(Cl)cc3)c3ccccc3nc-2cc1Nc1ccc(Cl)cc1 [Clofazimine, N,5-bis(4-chlorophenyl)-3,5-dihydro-3-(isopropylimino)phenazin-2-amine] | Yes | 10.8 µM | -0.97 ± 0.1 °C | 
10 | O=C(O)c1cc(O)ccc1O [Gentisic acid, 2,5-dihydroxybenzoic acid sodium salt] | Yes |  |  | 
11 | CN(C)CCOC(c1ccccc1)c1ccccc1 [Diphenhydramine] | Yes |  |  | 
12 | CC12CC3CC(C)(C1)CC(N)(C3)C2.Cl [Memantine, 3,5-Dimethyl-1-adamantanamine hydrochloride] | Yes | 35.7 µM | 2.00 ± 0.2 °C | 
13 | C[C@]12CCC(=O)C=C1CC[C@@H]1[C@@H]2[C@@H](O)C[C@@]2(C)[C@H]1CC[C@]2(O)C(=O)CO [Hydrocortisone] |  |  | 1.11 ± 0.1 °C | IC50 ([2]; LPLA2 dependent 1-O-acyl N-acetylsphingosine synthase activity, read-out: LPLA2 IC50): 402 µM; pKa (basic) ([1]; ref Pubchem and chEMBL database): -2.8
14 | Nc1c(Br)cc(Br)cc1CN[C@H]1CC[C@H](O)CC1 [Ambroxol, 2-amino-3,5-dibromo-N-(trans-4-hydroxycyclohexyl) benzylamine] |  | 59 µM | 0.68 ± 0.5 °C | pKa (basic) [1, 4]: 9.01
15 | CCOc1ccc(NC(C)=O)cc1 [Phenacetin, N-(4-ethoxyphenyl) acetamide] |  | 2140 µM | -2.30 ± 0.6 °C | pKa (basic) [1, 4]: -4.2

From PMC8243516, “Inhibition of lysosomal phospholipase A2 predicts drug-induced phospholipidosis” (Journal of Lipid Research, 2021)
